Ki data for 26 compounds are collected here from patent publication US20240228499A1, “MASP-2 INHIBITORS AND METHODS OF USE” (Omeros Corporation, priority 2022, published 2024).

Structures can show the parent of a compound that is named as a salt.

One assay concerns the target T1, MASP-2 (CCP1-CCP2-SP) (Homo sapiens, UniProt O00187).
T1 construct: 15 μL of Enzyme MASP-2 (CCP1-CCP2-SP) in Assay Buffer
Kind of assay: Enzymatic assay for MASP-2 inhibitory activity (fluorogenic substrate). As to conditions: room temperature, 20 mM Hepes pH 7.4, 20 min. The assay is classed as biochemical. A digest of the protocol: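 Human MASP-2 CCP1-CCP2-SP construct with a C2-cleavage-site fluorogenic substrate in 20 mM HEPES pH 7.4, 140 mM NaCl, 0.1% Tween 20, 20 min at room temperature before acetic acid stop. Activity normalised to DMSO and no-enzyme controls; IC50 taken as equivalent to Ki under linear conditions.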

Another assay addresses T2, human a-thrombin (Homo sapiens, UniProt P00734).
T2 construct: enzyme (human a-thrombin (BioPharm® Lab.)); purchased BioPharm Lab
Kind of assay: Enzymatic assay for thrombin (fluorogenic peptide substrate Boc-VPR-AMC). The assay is classed as biochemical. As to conditions: room temperature, 20 mM Hepes pH 7.4, 20 min. The method, boiled down:
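Human α-thrombin was incubated with serially diluted compound and fluorogenic substrate Boc-VPR-AMC in 20 mM Hepes pH 7.4, 140 mM NaCl, 0.1% Tween 20 at room temperature. The reaction was stopped after 20 min with 0.1 M acetic acid and fluorescence read. % activity was normalized to DMSO and no-enzyme controls, and IC50 was taken as equivalent to Ki.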

T1 sequence (O00187 287-686 limits assumed): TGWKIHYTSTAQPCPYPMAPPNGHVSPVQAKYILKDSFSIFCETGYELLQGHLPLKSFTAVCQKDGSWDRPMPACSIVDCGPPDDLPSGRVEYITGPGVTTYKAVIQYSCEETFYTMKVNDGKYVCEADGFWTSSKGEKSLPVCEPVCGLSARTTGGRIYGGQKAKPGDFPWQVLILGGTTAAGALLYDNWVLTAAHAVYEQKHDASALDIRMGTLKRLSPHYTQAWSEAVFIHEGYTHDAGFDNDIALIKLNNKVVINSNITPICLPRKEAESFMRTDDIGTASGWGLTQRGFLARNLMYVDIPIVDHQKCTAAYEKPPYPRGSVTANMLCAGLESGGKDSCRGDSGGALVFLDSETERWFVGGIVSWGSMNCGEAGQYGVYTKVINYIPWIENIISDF

Turning to `Cc1cc(Cl)cc(CNc2cnc3n(c2=O)[C@H](C(=O)N[C@@H]2CCc4ncccc42)CC3)c1` [Compound 85, (S)-3-((3-chloro-5-methylbenzyl)amino)-N-((R)-6,7-dihydro-5H-cyclopenta[b]pyridin-5-yl)-4-oxo-4,6,7,8-tetrahydropyrrolo[1,2-a]pyrimidine-6-carboxamide], the Ki on MASP-2 (CCP1-CCP2-SP) is < 500 nM; on human a-thrombin, > 25000 nM.
With `Cc1cc(C)cc(CNc2cnc3n(c2=O)[C@@H](C(=O)NCc2ccc(N)nc2C)CC3)c1` [Compound 78], the Ki on MASP-2 (CCP1-CCP2-SP) is 2500 to 10000 nM; at human a-thrombin, > 25000 nM.
For `Cc1nc(N)ccc1CNC(=O)[C@@H]1CCc2ncc(NCc3cc(OC(F)(F)F)ccc3F)c(=O)n21` [Compound 41, (S)-N-((6-amino-2-methylpyridin-3-yl)methyl)-3-((2-fluoro-5-(trifluoromethoxy)benzyl)amino)-4-oxo-4,6,7,8-tetrahydro-pyrrolo[1,2-a]pyrimidine-6-carboxamide, di-trifluoroacetate], in that order: < 500 nM and 500 to 2500 nM.
For `COc1c(F)ccc(F)c1CNc1cnc2n(c1=O)[C@H](C(=O)NCc1ccc(N)nc1C)CC2` [Compound 36, (S)-N-((6-amino-2-methylpyridin-3-yl)methyl)-3-((3,6-difluoro-2-methoxybenzyl)amino)-4-oxo-4,6,7,8-tetrahydropyrrolo[1,2-a]pyrimidine-6-carboxamide, di-trifluoroacetate], the figures for the Ki at MASP-2 (CCP1-CCP2-SP) and on human a-thrombin were < 500 nM and 2500 to 10000 nM, respectively.
For `Cc1nc(N)ccc1CNC(=O)[C@@H]1CCc2ncc(NCc3cccc(C(=O)O)c3)c(=O)n21` [Compound 13, (S)-3-(((6-(((6-amino-2-methylpyridin-3-yl)methyl)carbamoyl)-4-oxo-4,6,7,8-tetrahydropyrrolo[1,2-a]pyrimidin-3-yl)amino)methyl)benzoic acid], the Ki is < 500 nM at MASP-2 (CCP1-CCP2-SP) and 10000 to 25000 nM on human a-thrombin.
The corresponding values for `Cc1cc(CNc2cnc3n(c2=O)[C@H](C(=O)NCc2ccc(N)nc2C)CC3)cc(C(F)(F)F)c1` [Compound 29, (S)-N-((6-amino-2-methylpyridin-3-yl)methyl)-3-((3-methyl-5-(trifluoromethyl)benzyl)amino)-4-oxo-4,6,7,8-tetrahydro-pyrrolo[1,2-a]pyrimidine-6-carboxamide, di-trifluoroacetate] are < 500 nM and 500 to 2500 nM.
For `Cc1cc(C)cc(CNc2cnc3n(c2=O)[C@H](C(=O)NCc2ccnc(C)c2)CC3)c1` [Compound 19, (S)-3-((3,5-dimethylbenzyl)amino)-N-((2-methylpyridin-4-yl)methyl)-4-oxo-4,6,7,8-tetrahydropyrrolo[1,2-a]pyrimidine-6-carboxamide], in that order: 500 to 2500 nM and > 25000 nM.
As for `Cc1nc(N)ccc1CNC(=O)[C@@H]1CCc2ncc(NCc3cccc(C(F)F)c3)c(=O)n21` [Compound 71, (S)—N-((6-amino-2-methylpyridin-3-yl)methyl)-3-((3-(difluoromethyl)benzyl)amino)-4-oxo-4,6,7,8-tetrahydropyrrolo[1,2-a]pyrimidine-6-carboxamide], the figures for the Ki on MASP-2 (CCP1-CCP2-SP) and on human a-thrombin were < 500 nM and 500 to 2500 nM, respectively.
As to `Cc1ccc(CNc2cnc3n(c2=O)[C@H](C(=O)NCc2ccc(N)nc2C)CC3)cc1` [Compound 61], the results for the Ki at MASP-2 (CCP1-CCP2-SP) and on human a-thrombin were < 500 nM and 2500 to 10000 nM, respectively.
The corresponding values for `COc1cc(Cl)cc(CNc2cnc3n(c2=O)[C@@H](C(=O)N[C@H](C)c2ccc(N)nc2)CC3)c1` [Compound 77, (R)-N-((R)-1-(6-aminopyridin-3-yl)ethyl)-3-((3-chloro-5-methoxybenzyl)amino)-4-oxo-4,6,7,8-tetrahydropyrrolo[1,2-a]pyrimidine-6-carboxamide] are < 500 nM and > 25000 nM.
`Cc1nc(N)ccc1CNC(=O)[C@@H]1CCc2ncc(NCc3ccc(C(F)(F)F)cc3F)c(=O)n21` [Compound 43, (S)-N-((6-amino-2-methylpyridin-3-yl)methyl)-3-((2-fluoro-4-(trifluoromethyl)benzyl)amino)-4-oxo-4,6,7,8-tetrahydro-pyrrolo[1,2-a]pyrimidine-6-carboxamide, di-trifluoroacetate]: the Ki is < 500 nM at MASP-2 (CCP1-CCP2-SP) and 2500 to 10000 nM at human a-thrombin.
The corresponding values for `Cc1nc(N)ccc1CNC(=O)[C@@H]1CCc2ncc(NCc3cccc(-n4cccn4)c3)c(=O)n21` [Compound 40, (S)-3-((3-(1H-pyrazol-1-yl)benzyl)amino)-N-((6-amino-2-methylpyridin-3-yl)methyl)-4-oxo-4,6,7,8-tetrahydropyrrolo[1,2-a]pyrimidine-6-carboxamide, trifluoroacetate] are < 500 nM and 500 to 2500 nM.
In the case of `Cc1cc(C)cc(CNc2cnc3n(c2=O)[C@H](C(=O)NCc2cc(Cl)ccc2-n2cnnn2)CC3)c1` [Compound 5, (S)—N-(5-chloro-2-(1H-tetrazol-1-yl)benzyl)-3-((3,5-dimethylbenzyl)amino)-4-oxo-4,6,7,8-tetrahydropyrrolo[1,2-a]pyrimidine-6-carboxamide trifluoroacetic acid], the Ki on MASP-2 (CCP1-CCP2-SP) and on human a-thrombin was < 500 nM throughout.
Turning to `Cc1cccc(C(C)Nc2cnc3n(c2=O)[C@H](C(=O)NCc2cc4c(s2)CNC4)CC3)c1` (single isomer, unassigned) [Compound 69, di-trifluoroacetate], the results for the Ki on MASP-2 (CCP1-CCP2-SP) and on human a-thrombin were < 500 nM and 500 to 2500 nM, respectively.
Consider `Cc1cccc(CNc2cnc3n(c2=O)[C@H](C(=O)NCc2ccc(N)nc2C)CC3)c1` [Compound 60, (S)—N-((6-amino-2-methylpyridin-3-yl)methyl)-3-((3-methylbenzyl)amino)-4-oxo-4,6,7,8-tetrahydropyrrolo[1,2-a]pyrimidine-6-carboxamide], for which the Ki on MASP-2 (CCP1-CCP2-SP) was < 500 nM; at human a-thrombin, 500 to 2500 nM.
Turning to `Cc1cc(Cl)cc(CNc2cnc3n(c2=O)[C@H](C(=O)NCc2cccnc2)CC3)c1` [Compound 66], the Ki on MASP-2 (CCP1-CCP2-SP) is 500 to 2500 nM; at human a-thrombin it was > 25000 nM.
With `Cc1cc(C)cc(CNc2cnc3n(c2=O)[C@H](C(=O)NCc2ccc(N)nc2C)CC3)c1` [Compound 1, (S)—N-((6-amino-2-methylpyridin-3-yl)methyl)-3-((3,5-dimethylbenzyl)amino)-4-oxo-4,6,7,8-tetrahydropyrrolo[1,2-a]pyrimidine-6-carboxamide], the Ki was < 500 nM at MASP-2 (CCP1-CCP2-SP) and 500 to 2500 nM on human a-thrombin.
For `Cc1nc(N)ccc1CNC(=O)[C@@H]1CCc2ncc(NCc3cccc(F)c3C)c(=O)n21` [Compound 63], in that order: < 500 nM and 500 to 2500 nM.
On to `Cc1nc(N)ccc1CNC(=O)[C@@H]1CCc2ncc(NCc3c(F)cccc3F)c(=O)n21` [Compound 32, (S)-N-((6-amino-2-methylpyridin-3-yl)methyl)-3-((2,6-difluorobenzyl)amino)-4-oxo-4,6,7,8-tetrahydropyrrolo[1,2-a]pyrimidine-6-carboxamide, di-trifluoroacetate], for which the Ki is < 500 nM on MASP-2 (CCP1-CCP2-SP) and 10000 to 25000 nM on human a-thrombin.
Take `N#Cc1cc(F)cc(CNc2cnc3n(c2=O)[C@H](C(=O)N[C@@H]2CCc4nc(N)ccc42)CC3)c1` [Compound 93, (S)-N-((R)-2-amino-6,7-dihydro-5H-cyclopenta[b]pyridin-5-yl)-3-((3-cyano-5-fluorobenzyl)amino)-4-oxo-4,6,7,8-tetrahydro-pyrrolo[1,2-a]pyrimidine-6-carboxamide]: the values for the Ki at MASP-2 (CCP1-CCP2-SP) and at human a-thrombin were < 500 nM and 500 to 2500 nM, respectively.
`Nc1ccc2c(n1)CC[C@H]2NC(=O)[C@@H]1CCc2ncc(NCc3cccc(CO)c3)c(=O)n21` [Compound 103]: the Ki was < 500 nM at MASP-2 (CCP1-CCP2-SP) and 2500 to 10000 nM at human a-thrombin.
The corresponding values for `Cc1c(C#N)cccc1CNc1cnc2n(c1=O)[C@H](C(=O)N[C@@H]1CCc3nc(N)ccc31)CC2` [Compound 92, (S)-N-((R)-2-amino-6,7-dihydro-5H-cyclopenta[b]pyridin-5-yl)-3-((3-cyano-2-methylbenzyl)amino)-4-oxo-4,6,7,8-tetrahydro-pyrrolo[1,2-a]pyrimidine-6-carboxamide] are < 500 nM and 2500 to 10000 nM.
Regarding `COc1cc(CNc2cnc3n(c2=O)[C@H](C(=O)NCc2ccc(N)nc2C)CC3)ccc1C` [Compound 45, (S)-N-((6-amino-2-methylpyridin-3-yl)methyl)-3-((3-methoxy-4-methylbenzyl)amino)-4-oxo-4,6,7,8-tetrahydropyrrolo[1,2-a]pyrimidine-6-carboxamide, trifluoroacetate], the Ki at MASP-2 (CCP1-CCP2-SP) was < 500 nM; on human a-thrombin, 500 to 2500 nM.
The corresponding values for `CCOc1cccc(CNc2cnc3n(c2=O)[C@H](C(=O)NCc2ccc(N)nc2C)CC3)c1` [Compound 57, (S)—N-((6-amino-2-methylpyridin-3-yl)methyl)-3-((3-ethoxybenzyl)amino)-4-oxo-4,6,7,8-tetrahydropyrrolo[1,2-a]pyrimidine-6-carboxamide] are < 500 nM and 500 to 2500 nM.
`Cc1nc(N)ccc1CNC(=O)[C@@H]1CCc2ncc(NCc3ccc4c(c3)OC(F)(F)O4)c(=O)n21` [Compound 12, (S)—N-((6-amino-2-methylpyridin-3-yl)methyl)-3-(((2,2-difluorobenzo[D][1,3]dioxol-5-yl)methyl)amino)-4-oxo-4,6,7,8-tetrahydropyrrolo[1,2-a]pyrimidine-6-carboxamide, trifluoroacetate]: the values for the Ki on MASP-2 (CCP1-CCP2-SP) and at human a-thrombin were < 500 nM and 2500 to 10000 nM, respectively.
The corresponding values for `CC(=O)c1cccc(CNc2cnc3n(c2=O)[C@H](C(=O)N[C@@H]2CCc4nc(N)ccc42)CC3)c1` [Compound 104] are < 500 nM and 500 to 2500 nM.

For orientation: Ki means a measure of affinity in units of concentration, obtained from inhibition or displacement. A lower Ki goes with a stronger hold on the target.
